Among the test systems are MCF7 breast; M14 melanoma; SNB-75 CNS; SK-MEL-2 melanoma; HS 578T breast; HT29 colon; ACHN renal; MOLT-4 leukemia; A549 NSCLC; EKVX NSCLC.
Holding throughout (assay): growth of human tumour cells (NCI), 48 h

The structures appear in SMILES notation.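 Compound exposure: 48 hours, 5 concentrations, 96-well plates. Here, GI50 denotes the concentration required for 50% inhibition of growth. TGI is the concentration that stops growth completely.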

On to `Cc1cc(C)c(C#N)c(Sc2nc(C)c([N+](=O)[O-])c(C)c2C#N)n1`, for which the GI50 in the experiment with MCF7 breast was 3.11 µM; with M14 melanoma, 3.07 µM; with SNB-75 CNS, 3.29 µM; with SK-MEL-2 melanoma it was 2.21 µM; with HS 578T breast it was 2.44 µM; in the experiment on HT29 colon, 3.71 µM. Besides, the results for the GI50 in the experiment on ACHN renal and in the experiment with MOLT-4 leukemia were 1.75 µM and 3.03 µM, respectively. Moreover, the TGI in the experiment on MCF7 breast was 11.6 µM; in the experiment with M14 melanoma, 10.4 µM; with SNB-75 CNS it was 21.8 µM; in the experiment on SK-MEL-2 melanoma, 5.86 µM; in the experiment on HS 578T breast, 8.51 µM; with HT29 colon, 10.8 µM. For the same compound, the TGI in the experiment on ACHN renal was 3.38 µM; in the experiment with MOLT-4 leukemia it was above 100 µM.
For the compound `COc1ccc(-c2nc(-c3nc4ccc(C)cc4[nH]3)cc3c2[nH]c2ccccc23)cc1`, the GI50 is 3.43 µM in the experiment on A549 NSCLC; 3.06 µM in the experiment with MCF7 breast; 3.09 µM with M14 melanoma; 3.43 µM with SNB-75 CNS; 3.11 µM with SK-MEL-2 melanoma; 4.94 µM in the experiment on HS 578T breast. The GI50 was 5.29 µM in the experiment with HT29 colon, 3.05 µM in the experiment with ACHN renal and 2.31 µM in the experiment with MOLT-4 leukemia. Also, the TGI in the experiment on A549 NSCLC was above 100 µM; in the experiment with MCF7 breast, 56.3 µM; in the experiment with M14 melanoma it was 11.7 µM; in the experiment on SNB-75 CNS, above 100 µM; in the experiment with SK-MEL-2 melanoma it was 9.22 µM; with HS 578T breast, above 100 µM. Besides, the TGI is above 100 µM in the experiment on HT29 colon, above 100 µM in the experiment with ACHN renal and 10 µM in the experiment with MOLT-4 leukemia.
With `COC(=O)c1c(-c2cccs2)oc(-c2cccs2)c1C(=O)OC`, the GI50 in the experiment on A549 NSCLC is 39.1 µM; with MCF7 breast, 13.2 µM; in the experiment on M14 melanoma it was 20.3 µM; in the experiment with SNB-75 CNS, above 73.6 µM; in the experiment on SK-MEL-2 melanoma, 39.5 µM; in the experiment with HS 578T breast, 35.8 µM. The GI50 is 60.2 µM in the experiment on HT29 colon, above 70.2 µM with ACHN renal and 56.8 µM with EKVX NSCLC. Besides, the TGI was above 100 µM in the experiment on A549 NSCLC; above 100 µM with MCF7 breast; 55.2 µM with M14 melanoma; above 100 µM in the experiment with SNB-75 CNS; above 100 µM in the experiment with SK-MEL-2 melanoma; above 100 µM in the experiment on HS 578T breast. Moreover, the TGI with HT29 colon, in the experiment on ACHN renal and in the experiment with EKVX NSCLC was above 100 µM each time.
Consider `[N-]=[N+]=NCCCn1c2c(c3ccc([N+](=O)[O-])cc3c1=O)C(=O)c1cc(Br)ccc1-2`, for which the GI50 in the experiment with A549 NSCLC was above 100 µM; in the experiment on MCF7 breast, 8.15 µM; in the experiment with M14 melanoma it was 3.02 µM; in the experiment on SK-MEL-2 melanoma, above 100 µM; in the experiment with HS 578T breast, above 100 µM; in the experiment on HT29 colon it was above 100 µM. Besides, the GI50 in the experiment on ACHN renal is above 100 µM; in the experiment with EKVX NSCLC, above 100 µM; in the experiment with MOLT-4 leukemia, 1.15 µM. The TGI in the experiment on A549 NSCLC, with MCF7 breast, with M14 melanoma, with SK-MEL-2 melanoma, in the experiment on HS 578T breast and in the experiment with HT29 colon was above 100 µM each time. The TGI with ACHN renal, in the experiment on EKVX NSCLC and in the experiment on MOLT-4 leukemia was above 100 µM throughout.
Consider `C=C1C(O)C2CC(C)(CO)C(=O)C2=C(CC(C)C)C12CC2` (stereo not given), for which the GI50 was 59.8 µM with A549 NSCLC; 63.9 µM with MCF7 breast; 92.7 µM in the experiment with M14 melanoma; above 100 µM in the experiment on SK-MEL-2 melanoma; above 100 µM in the experiment with HS 578T breast; above 100 µM in the experiment with HT29 colon. Further, the GI50 in the experiment with ACHN renal is 93.8 µM; in the experiment with EKVX NSCLC, 69.5 µM; in the experiment on MOLT-4 leukemia, 81.8 µM. Besides, the TGI in the experiment on A549 NSCLC, in the experiment with MCF7 breast, with M14 melanoma, in the experiment with SK-MEL-2 melanoma, with HS 578T breast and with HT29 colon was above 100 µM each time. For the same compound, the TGI in the experiment on ACHN renal, in the experiment on EKVX NSCLC and with MOLT-4 leukemia was above 100 µM each time.
For the compound `Cn1cc(C2=C(c3c[nH]c4ccccc34)C(=O)NC2=O)c2ccccc21`, the GI50 was 1.66 µM with A549 NSCLC; 0.278 µM in the experiment with MCF7 breast; 1.24 µM with M14 melanoma; 0.071 µM in the experiment on SNB-75 CNS; 1.09 µM with SK-MEL-2 melanoma; 0.151 µM in the experiment on HS 578T breast. Moreover, the results for the GI50 with HT29 colon, with ACHN renal and with MOLT-4 leukemia were 0.968 µM, 1.73 µM and 0.458 µM, respectively. Moreover, the TGI in the experiment with A549 NSCLC was above 25 µM; in the experiment with MCF7 breast, above 25 µM; in the experiment with M14 melanoma, above 25 µM; with SNB-75 CNS, above 7.62 µM; with SK-MEL-2 melanoma, above 25 µM; with HS 578T breast it was above 25 µM. The TGI with HT29 colon and in the experiment with ACHN renal was above 25 µM each time.
For the compound `COc1ccc(-c2ccc(/C=N/n3c(COc4ccccc4Cl)nn(CN4CCOCC4)c3=S)o2)c([N+](=O)[O-])c1`, the GI50 with A549 NSCLC is 27.4 µM; in the experiment with MCF7 breast it was 19.4 µM; with M14 melanoma it was 22.3 µM; in the experiment on HS 578T breast, 33.9 µM; in the experiment on HT29 colon, 49.9 µM; with ACHN renal it was 33.6 µM. The GI50 in the experiment on EKVX NSCLC is 54.9 µM; in the experiment on MOLT-4 leukemia, 19.3 µM. In addition, the TGI is above 100 µM with A549 NSCLC; 47.4 µM in the experiment with MCF7 breast; 55.8 µM in the experiment with M14 melanoma; 90.4 µM with HS 578T breast; above 100 µM in the experiment on HT29 colon; above 100 µM in the experiment with ACHN renal. In addition, the TGI was above 100 µM in the experiment on EKVX NSCLC and 51.7 µM in the experiment with MOLT-4 leukemia.
Take `Cc1cc(N(CCOS(C)(=O)=O)CCOS(C)(=O)=O)ccc1C(=O)O`: the GI50 is above 100 µM in the experiment on A549 NSCLC; 87.4 µM in the experiment with MCF7 breast; above 100 µM in the experiment on M14 melanoma; above 100 µM in the experiment on HS 578T breast; above 100 µM with HT29 colon; 50 µM with ACHN renal. For the same compound, the GI50 in the experiment on EKVX NSCLC is above 100 µM. Also, the TGI with A549 NSCLC, in the experiment on MCF7 breast, in the experiment with M14 melanoma, in the experiment on HS 578T breast, with HT29 colon and in the experiment with ACHN renal was above 100 µM in each case. This compound came in with a TGI with EKVX NSCLC above 100 µM.

The values are drawn from PubChem BioAssay (NCI).
